In brackets after ≈: the same amount, converted by molar mass.
How the values were obtained:
[1] = Aqueous solubility at 20° C.; format: physicochemical; settings: water
mice = settings: cited from earlier work

Compound | solubility [1] | solubility ([1]; Table 1) | toxicity (LD 50 in mice, intravenous) (mice)
OCC(I)=CI [Compound 2, 2,3-Diiodo-2-propene-1-ol] | 3.91 mg/mL (≈ 12.6 mM) | 0.391 mg/mL (≈ 1.26 mM) | –
OCC(I)=C(I)I [Compound 3, 2,3,3-Triiodo-2-propene-1-ol] | 0.198 mg/mL (≈ 0.454 mM) | 0.198 mg/mL (≈ 0.454 mM) | –
OCC(O)COCC(I)=CI (centres unmarked) [Compound 5, 3-(2,3-Diiodo-2-propenyloxy)-propane-1,2-diol] | 18.4 mg/mL (≈ 47.9 mM) | 18.4 mg/mL (≈ 47.9 mM) | –
OCC(O)COCC(I)=C(I)I (centres unmarked) [Compound 6, 3-(2,3,3-Triiodo-2-propenyloxy)-propane-1,2-diol] | 0.5 mg/mL (≈ 0.981 mM) | 0.5 mg/mL (≈ 0.981 mM) | –
OCCOCC(I)=C(I)COCCO [Compound 9, 2,2′-[2,3-Diiodo-2-butene-1,4-diylbis(oxy)]-bis-ethanol] | 7.2 mg/mL (≈ 16.8 mM) | 7.2 mg/mL (≈ 16.8 mM) | –
OCC(I)=C(I)CO [Compound 12, 2,3-Diiodo-2-butene-1,4-diol] | 0.534 mg/mL (≈ 1.57 mM) | 0.534 mg/mL (≈ 1.57 mM) | –
OCC(I)=C(I)COCC(O)CO (centres unmarked) [Compound 13, 3-[(2,3-Diiodo-4-hydroxy-2-butenyl)oxy]-propane-1,2-diol] | > 1.2 mg/mL | > 1200 mg/mL | –
OCC(O)COCC(I)=C(I)COCC(O)CO (centres unmarked) [Compound 14, 3,3′-[2,3-Diiodo-2-butene-1,4-diylbis(oxy)]-bis-propane-1,2-diol] | > 1.2 mg/mL | > 1200 mg/mL | –
OCC(I)=C(I)C(I)=C(I)CO [Compound 16, 2,3,4,5-Tetraiodo-2,4-hexadiene-1,6-diol] | 0.183 mg/mL (≈ 0.296 mM) | 0.183 mg/mL (≈ 0.296 mM) | –
CC(=O)N(CC(O)CO)c1c(I)c(C(=O)NCC(O)CO)c(I)c(C(=O)NCC(O)CO)c1I (centres unmarked) [Iohexol, iohexol, reference compound] | – | > 1200 mg/mL | 33700 mg/kg
